Tests used:
Rattus norvegicus [1] = test: Anticonvulsant activity in PTZ induced rat at 50 mg/kg, sc measured after 2 to 4 mins relative to control; format: functional; conditions: time 2-4 min
Rattus norvegicus [2] = test: Anticonvulsant activity in rat at 50 mg/kg, ip measured after 1 hrs by MES test relative to control; format: functional
Rattus norvegicus [3] = test: Anticonvulsant activity in albino rat at 30 mg/kg, ip measured after 1 hrs by MES test; format: functional
[4] = Binding affinity to AT1 in rabbit aorta; format: tissue-based, Oryctolagus cuniculus
Tobacco mosaic virus = test: Antiviral activity against TMV at 500 microg/ml; format: functional; conditions: dose 500 µg/ml

SMILES | Activity (Rattus norvegicus [1]) [%] | Activity (Rattus norvegicus [2]) [%] | inhibition in vivo at 30 mg/kg (Rattus norvegicus [3]) [%] | also measured
Cc1nc2ccc(Br)cc2c(=O)n1NCc1nnc(NCC2C(=O)NC(=S)NC2=O)s1 | 60 | 60 |  | 
Cc1nc2ccccc2c(=O)n1NCc1nnc(/N=C/c2ccc(O)cc2)s1 |  |  | 50 | 
Cc1nc2ccc(I)cc2c(=O)n1NCC(=O)NNC(N)=S | 20 | 20 |  | 
CCCCc1nc2ccc(C)cc2c(=O)n1Cc1ccc(-c2ccccc2C(=O)O)cc1 |  |  |  | IC50 [4]: 10 nM
COc1ccc(C2SCC(=O)N2c2nnc(CNn3c(C)nc4ccc(Br)cc4c3=O)s2)cc1 (stereo not drawn) |  |  | 60 | 
CCCC(CCC)C(=O)[O-].[Na+] [VALPROATE SODIUM] | 80 | 80 |  | 
CCCCc1nc2ccc(F)cc2c(=O)n1Cc1ccc(-c2ccccc2-c2nn[nH]n2)cc1 |  |  |  | IC50 [4]: ≥ 1.3 nM
COc1cccc(/C=N/c2nnc(CNn3c(C)nc4ccccc4c3=O)s2)c1 |  |  | 50 | 
Cc1nc2c(Br)cc(Br)cc2c(=O)n1NCc1nnc(NCC2C(=O)NC(=O)NC2=O)s1 | 60 | 60 |  | 
Cc1nc2ccc(Br)cc2c(=O)n1NCc1nnc(/N=C/c2ccccc2)s1 |  |  | 50 | 
Cc1nc2ccc(I)cc2c(=O)n1NCc1nnc(NCC2C(=O)NC(=O)NC2=O)s1 | 60 | 60 |  | 
Cc1nc2ccc(I)cc2c(=O)n1NCC(=O)NNC(=S)NCC1C(=O)NC(=S)NC1=O | 40 | 40 |  | 
Cc1nc2ccc(I)cc2c(=O)n1NCc1nnc(N)s1 | 40 | 40 |  | 
Cc1nc2ccccc2c(=O)n1NCc1nnc(NCC2C(=O)NC(=O)NC2=O)s1 | 60 | 60 |  | 
Cc1nc2ccccc2c(=O)n1NCC(=O)NNC(=S)NCC1C(=O)NC(=O)NC1=O | 40 | 40 |  | 
Cc1nc2ccc(I)cc2c(=O)n1NCc1nnc(NCC2C(=O)NC(=S)NC2=O)s1 | 60 | 60 |  | 
Cc1nc2ccc(Br)cc2c(=O)n1NCc1nnc(N)s1 | 40 | 40 |  | 
Cc1nc2ccc(Br)cc2c(=O)n1NCc1nnc(/N=C/c2ccc(O)cc2)s1 |  |  | 50 | 
Cc1nc2ccccc2c(=O)n1NCC(=O)NNC(N)=S | 20 | 20 | 30 | 
Cc1nc2c(Br)cc(Br)cc2c(=O)n1NCC(=O)NNC(=S)NCC1C(=O)NC(=O)NC1=O | 40 | 40 |  | 
Cc1nc2ccc(Br)cc2c(=O)n1NCC(=O)NNC(=S)NCC1C(=O)NC(=S)NC1=O | 40 | 40 |  | 
COc1ccc(/C=N/c2nnc(CNn3c(C)nc4ccc(Br)cc4c3=O)s2)cc1 |  |  | 50 | 
COc1cc(/C=N/c2nnc(CNn3c(C)nc4ccc(Br)cc4c3=O)s2)ccc1O |  |  | 50 | 
Cc1nc2ccccc2c(=O)n1NCc1nnc(NCC2C(=O)NC(=S)NC2=O)s1 | 60 | 60 |  | 
Cc1nc2ccc(Br)cc2c(=O)n1NCC(=O)NNC(=S)NCC1C(=O)NC(=O)NC1=O | 40 | 40 |  | 

SMILES | Activity (Rattus norvegicus [1]) [%] | Activity (Rattus norvegicus [2]) [%] | inhibition in vivo at 30 mg/kg (Rattus norvegicus [3]) [%] | also measured
CCOC(=O)CNn1c(C)nc2ccc(Br)cc2c1=O | 10 | 10 | 20 | 
COc1ccc(/C=N/c2nnc(CNn3c(C)nc4ccccc4c3=O)s2)cc1 |  |  | 50 | 
Cc1nc2ccccc2c(=O)n1NCc1nnc(N2C(=O)CSC2c2ccccc2)s1 (stereo not drawn) |  |  | 60 | 
Cc1nc2c(Br)cc(Br)cc2c(=O)n1NCc1nnc(NCC2C(=O)NC(=S)NC2=O)s1 | 60 | 60 |  | 
Cc1nc2ccc(Br)cc2c(=O)n1NCc1nnc(NCC2C(=O)NC(=O)NC2=O)s1 | 60 | 60 |  | 
COc1cccc(C2SCC(=O)N2c2nnc(CNn3c(C)nc4ccc(Br)cc4c3=O)s2)c1 (stereo not drawn) |  |  | 60 | 
COc1cc(/C=N/c2nnc(CNn3c(C)nc4ccccc4c3=O)s2)ccc1O |  |  | 50 | 
COc1cccc(C2SCC(=O)N2c2nnc(CNn3c(C)nc4ccccc4c3=O)s2)c1 (stereo not drawn) |  |  | 60 | 
Cc1nc2ccc(I)cc2c(=O)n1NCC(=O)NNC(=S)NCC1C(=O)NC(=O)NC1=O | 40 | 40 |  | 
Cc1nc2ccccc2c(=O)n1NCc1nnc(N)s1 | 40 | 40 |  | 
Cc1nc2ccccc2c(=O)n1NCc1nnc(/N=C/c2ccc(N(C)C)cc2)s1 |  |  | 50 | 
O=c1c2ccccc2nc(-c2ccncc2)n1/C=C/c1ccccc1Cl |  |  |  | Activity (Tobacco mosaic virus): 54%
Cc1nc2ccc(Br)cc2c(=O)n1/C=C/c1ccc(F)cc1 |  |  |  | Activity (Tobacco mosaic virus): 54%
COc1cccc(/C=N/c2nnc(CNn3c(C)nc4ccc(Br)cc4c3=O)s2)c1 |  |  | 50 | 
CCOC(=O)CNn1c(C)nc2ccc(I)cc2c1=O | 10 | 10 |  | 
COc1ccc(C2SCC(=O)N2c2nnc(CNn3c(C)nc4ccccc4c3=O)s2)cc1 (stereo not drawn) |  |  | 60 | 
O=c1c2ccccc2nc(-c2ccccc2)n1/C=C/c1cccc(C(F)(F)F)c1 |  |  |  | Activity (Tobacco mosaic virus): 54%
Cc1nc2ccc(Br)cc2c(=O)n1/C=C/c1c(Cl)cccc1Cl |  |  |  | Activity (Tobacco mosaic virus): 54%
COc1cc(C2SCC(=O)N2c2nnc(CNn3c(C)nc4ccccc4c3=O)s2)ccc1O (stereo not drawn) |  |  | 60 | 
Nc1nnc(-c2cccc(Cl)c2Cl)c(N)n1 [LAMOTRIGINE] |  |  | 90 | 
O=c1c2ccccc2nc(-c2ccncc2)n1/C=C/c1ccccc1 |  |  |  | Activity (Tobacco mosaic virus): 54%
Cc1nc2ccc(Br)cc2c(=O)n1NCC(=O)NNC(N)=S | 20 | 20 | 30 | 
Cc1nc2c(Br)cc(Br)cc2c(=O)n1NCC(=O)NNC(N)=S | 20 | 20 |  | 
Cc1nc2ccc(Br)cc2c(=O)n1NCc1nnc(N2C(=O)CSC2c2ccc(O)cc2)s1 (stereo not drawn) |  |  | 60 | 
O=c1c2ccccc2nc(-c2ccncc2)n1/C=C/c1cccc(Cl)c1Cl |  |  |  | Activity (Tobacco mosaic virus): 54%

SMILES | Activity (Rattus norvegicus [1]) [%] | Activity (Rattus norvegicus [2]) [%] | inhibition in vivo at 30 mg/kg (Rattus norvegicus [3]) [%] | also measured
COc1cc(C2SCC(=O)N2c2nnc(CNn3c(C)nc4ccc(Br)cc4c3=O)s2)ccc1O (stereo not drawn) |  |  | 60 | 
CCOC(=O)CNn1c(C)nc2ccccc2c1=O | 10 | 10 | 20 | 
O=C1N=C([O-])NC1(c1ccccc1)c1ccccc1.[Na+] [PHENYTOIN SODIUM] | 80 | 80 | 80 | 
COc1cccc(/C=C/n2c(C)nc3ccc(Br)cc3c2=O)c1OC |  |  |  | Activity (Tobacco mosaic virus): 54%
Cc1nc2ccc(Br)cc2c(=O)n1/C=C/c1cccc(C(F)(F)F)c1F |  |  |  | Activity (Tobacco mosaic virus): 54%
Cc1nc2ccccc2c(=O)n1NCc1nnc(/N=C/c2ccccc2)s1 |  |  | 50 | 
CCOC(=O)CNn1c(C)nc2c(Br)cc(Br)cc2c1=O | 10 | 10 |  | 
Cc1nc2ccc(Br)cc2c(=O)n1/C=C/c1ccccc1O |  |  |  | Activity (Tobacco mosaic virus): 54%
Cc1nc2c(Br)cc(Br)cc2c(=O)n1NCc1nnc(N)s1 | 40 | 40 |  | 
Cc1nc2ccc(Br)cc2c(=O)n1/C=C/c1cccc(Cl)c1 |  |  |  | Activity (Tobacco mosaic virus): 54%
Cc1nc2ccccc2c(=O)n1NCc1nnc(N2C(=O)CSC2c2ccc(O)cc2)s1 (stereo not drawn) |  |  | 60 | 
Cc1nc2ccccc2c(=O)n1/C=C/c1cccc(Cl)c1Cl |  |  |  | Activity (Tobacco mosaic virus): 54%
Cc1nc2ccc(Br)cc2c(=O)n1/C=C/c1ccccc1C(F)(F)F |  |  |  | Activity (Tobacco mosaic virus): 54%
Cc1nc2ccc(Br)cc2c(=O)n1NCc1nnc(N2C(=O)CSC2c2ccccc2)s1 (stereo not drawn) |  |  | 60 | 
Cc1nc2ccc(Br)cc2c(=O)n1NCc1nnc(/N=C/c2ccc(N(C)C)cc2)s1 |  |  | 50 | 
COc1ccc(/C=C/n2c(C)nc3ccc(Br)cc3c2=O)c(OC)c1 |  |  |  | Activity (Tobacco mosaic virus): 54%
Cc1nc2ccccc2c(=O)n1NCC(=O)NNC(=S)NCC1C(=O)NC(=S)NC1=O | 40 | 40 |  | 
COc1ccc(OC)c(/C=C/n2c(C)nc3ccc(Br)cc3c2=O)c1 |  |  |  | Activity (Tobacco mosaic virus): 54%
Cc1nc2ccccc2c(=O)n1NCc1nnc(N2C(=O)CSC2c2ccc(N(C)C)cc2)s1 (stereo not drawn) |  |  | 60 | 
Cc1nc2c(Br)cc(Br)cc2c(=O)n1NCC(=O)NNC(=S)NCC1C(=O)NC(=S)NC1=O | 40 | 40 |  | 
O=c1c2ccccc2nc(-c2ccccc2)n1/C=C/c1ccc(C(F)(F)F)cc1 |  |  |  | Activity (Tobacco mosaic virus): 54%
O=c1c2ccccc2nc(-c2ccccc2)n1/C=C/c1cccc(Cl)c1 |  |  |  | Activity (Tobacco mosaic virus): 54%
Cc1nc2ccc(Br)cc2c(=O)n1NCc1nnc(N2C(=O)CSC2c2ccc(N(C)C)cc2)s1 (stereo not drawn) |  |  | 60 | 

Reference: ChEMBL document CHEMBL5260833, “An overview of quinazolines: Pharmacological significance and recent developments” (Eur J Med Chem, 2018)
